One test concerns the target T1, IRAK1 enzyme (Homo sapiens, UniProt P51617).
T1 construct: purchased Promega VA7477
As to the kind of experiment: IRAK1 enzyme activity inhibition (ADP-Glo, Promega kit). The format is biochemical. The note with it: for inhibition at 0.1 µM: test compound 0.1 uM. As to the method:
An experiment on IRAK1 enzyme activity inhibition of the compound of the present invention was conducted.
An IRAK1 enzyme kit (purchased from Promega, product number: VA7477) was used to dilute a mixed solution between 0.1 µg/µL of protein kinase B (AKT), which is an enzyme-reactive substrate, and 1.25 mM of ATP with a reaction buffer (40 mM Tris-HCl, pH 7.5; 20 mM MgCl2; 0.1 mg/mL BSA; 50 µM DTT) according to the instructions, so as to dispense 2 µL in a 384-well white plate, and then to add 1 µL of a test compound, which was gradient diluted starting from 1 mM, to a 384-well white plate. After that, an IRAK1 enzyme was diluted with a reaction buffer to a final concentration of 5 ng/µL, then 2 µL/well was dispensed into a 384-well white plate and reacted at 37°C for 60 minutes. After completion of a reaction, an ADP-GloTM enzyme test kit (purchased from Promega, product number: V9102) was used to add 5 µL of ADP-Glo reaction reagent and cause a reaction at 37°C for 40 minutes, and then 10 µL of enzyme chromogenic reagent was added again to measure a luminescence signal using equipment for measuring absorbance (THECAN, Microplate Reader). An activity inhibition rate was calculated from a measured value, and a 50% inhibition concentration (IC50 value) was analyzed through a non-linear regression analysis based on the % inhibition for each concentration of the test compound, and is shown in Table 3.
(In general: ADP-Glo first removes unused ATP, then detects ADP through luciferase.)

Another test concerns hPBMC TNFα. As to the kind of experiment: Cell-based inflammatory cytokine secretion inhibition (LPS-stimulated PBMC, hTNF-α ELISA). To be noted: human PBMC, LPS 1 µg/mL, hTNF-α by ELISA, mean; read-out: hPBMC TNFα IC50_mean. Here is the method: An experiment on inflammatory cytokine secretion inhibition of the compound of the present invention was conducted.
PBMC (LONZA, peripheral blood mononuclear cells) isolated from human whole blood was dispensed into a 96-well plate at a density of 1.0 X 10^5 cells/well, and the cells were stabilized for 20 hours. After that, a test compound diluted at each of four concentrations was added to a Roswell Park Memorial Institute (RPMI) medium, reacted for one hour, treated with lipopolysaccharide (LPS) to reach a final concentration of 1 µg/mL, and further reacted for one hour. hTNF-α, which is an inflammatory cytokine, was measured by an enzyme linked immunosorbent assay using an ELISA kit from Goma Biotech. A cell supernatant, a standard drug, and an antibody were added to an ELISA-plate and reacted for four hours in total, after which the plate was washed, reacted with streptavidin-HRP for 30 minutes, and washed again. After that, a TMB substrate was added and reacted in a dark place, and when a color was sufficiently developed, a stop solution was added to stop the reaction. hTNF-α was measured by measuring absorbance at 450 nm using equipment for absorption measurement (Microplate Reader from BioTeK). An activity inhibition rate was calculated from a measured absorbance value, a % inhibition for each concentration of the test compound was calculated, a 50% inhibition concentration (IC50 value) was analyzed through a non-linear regression analysis, and the results are shown in Table 4.
In general terms: In an ELISA, binding on a coated surface is turned into a signal by an enzyme label.

The target of the next test is T2, IRAK4 enzyme (Homo sapiens, UniProt Q9NWZ3).
T2 construct: purchased Promega V2621
T2 sequence (Q9NWZ3 1-460): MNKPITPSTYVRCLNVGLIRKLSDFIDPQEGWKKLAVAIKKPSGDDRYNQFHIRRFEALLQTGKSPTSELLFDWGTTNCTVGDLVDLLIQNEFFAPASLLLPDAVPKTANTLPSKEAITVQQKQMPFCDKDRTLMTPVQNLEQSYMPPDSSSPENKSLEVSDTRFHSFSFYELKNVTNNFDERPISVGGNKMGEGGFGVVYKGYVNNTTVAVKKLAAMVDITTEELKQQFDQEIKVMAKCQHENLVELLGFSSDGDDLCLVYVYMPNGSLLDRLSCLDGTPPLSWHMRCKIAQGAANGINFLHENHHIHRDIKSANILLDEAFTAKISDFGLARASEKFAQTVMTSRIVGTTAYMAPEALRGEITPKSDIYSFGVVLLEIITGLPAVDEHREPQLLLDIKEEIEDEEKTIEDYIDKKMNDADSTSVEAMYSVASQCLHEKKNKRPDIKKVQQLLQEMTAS
The test can be described thus: IRAK4 enzyme activity inhibition (ADP-Glo, Promega kit). The format is biochemical. Here is the method:
An experiment on IRAK4 enzyme activity inhibition of the compound of the present invention was conducted.
An IRAK4 enzyme kit (purchased from Promega, product number: V2621) was used to dilute a mixed solution between 0.1 µg/µL of myelin basic protein (MBP), which is an enzyme-reactive substrate, and 1.25 mM of ATP with a reaction buffer (40 mM Tris-HCl, pH 7.5; 20 mM MgCl2; 0.1 mg/mL BSA; 50 µM DTT) according to the instructions, so as to dispense 2 µL in a 384-well white plate, and then to add 1 µL of a test compound, which was gradient diluted starting from 1 mM, to a 384-well plate. After that, an IRAK4 enzyme was diluted with a reaction buffer to a final concentration of 5 ng/µL, then 2 µL/well was dispensed into a 384-well white plate and reacted at 37°C for 60 minutes. After completion of a reaction, an ADP-GloTM enzyme test kit (purchased from Promega, product number: V9102) was used to add 5 µL of ADP-Glo reaction reagent and cause a reaction at 37°C for 40 minutes, and then 10 µL of enzyme chromogenic reagent was added again to measure a luminescence signal using equipment for measuring absorbance (THECAN, Microplate Reader). An activity inhibition rate was calculated from a measured value, and a 50% inhibition concentration (IC50 value) was analyzed through a non-linear regression analysis based on the % inhibition for each concentration of the test compound, and is shown in Table 2.

pIC50: −log10 of the molar value.

T1 sequence (P51617 whole entry): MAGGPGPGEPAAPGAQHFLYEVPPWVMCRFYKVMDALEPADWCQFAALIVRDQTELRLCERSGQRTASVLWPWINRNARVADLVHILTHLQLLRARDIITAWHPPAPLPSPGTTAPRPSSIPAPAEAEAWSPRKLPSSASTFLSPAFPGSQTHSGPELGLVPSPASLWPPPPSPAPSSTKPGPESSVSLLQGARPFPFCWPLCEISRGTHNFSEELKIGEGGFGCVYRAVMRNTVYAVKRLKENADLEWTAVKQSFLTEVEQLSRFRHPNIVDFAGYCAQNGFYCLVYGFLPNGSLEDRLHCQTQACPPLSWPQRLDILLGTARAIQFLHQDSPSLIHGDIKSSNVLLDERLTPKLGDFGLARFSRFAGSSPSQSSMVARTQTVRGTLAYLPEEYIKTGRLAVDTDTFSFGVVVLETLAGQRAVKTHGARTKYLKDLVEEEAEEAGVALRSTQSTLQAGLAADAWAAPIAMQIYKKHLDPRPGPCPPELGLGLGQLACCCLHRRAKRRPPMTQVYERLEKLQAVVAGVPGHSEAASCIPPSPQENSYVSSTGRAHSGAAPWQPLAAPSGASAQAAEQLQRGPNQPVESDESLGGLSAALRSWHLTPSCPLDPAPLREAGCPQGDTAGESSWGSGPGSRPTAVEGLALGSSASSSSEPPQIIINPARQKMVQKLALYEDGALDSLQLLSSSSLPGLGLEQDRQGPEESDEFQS

A word on the inhibition: it is the percentage by which the read-out fell short of the control. In the case of `CC(C)(O)CCn1cc2cc(NC(=O)c3cncc([N+](=O)[O-])c3)c(N3CCOCC3)cc2n1` [Example 2, N-(2-(3-hydroxy-3-methylbutyl)-6-morpholino-2H-indazol-5-yl)-5-nitronicotinamide], the values for the inhibition at 0.1 µM against IRAK1 enzyme and on IRAK4 enzyme (test compound 0.1 uM) were 32.1% and 72.7%, respectively. Further, the pIC50 in the test on hPBMC TNFα was 6.28; against IRAK4 enzyme, 7.25. The same compound returned an inhibition at 1 µM at IRAK4 enzyme (test compound 1 uM) of 86.5%.

Turning to `CC(C)(O)CCn1cc2cc(NC(=O)c3cccc([N+](=O)[O-])c3)c(N3CCOCC3)cc2n1` [Example 3, N-(2-(3-hydroxy-3-methylbutyl)-6-morpholino-2H-indazol-5-yl)-3-nitrobenzamide], the pIC50 is 5.59 at IRAK1 enzyme, 7.29 with hPBMC TNFα and 9.70 against IRAK4 enzyme. Further, the inhibition at 0.1 µM on IRAK4 enzyme (test compound 0.1 uM) turned out to be 81.7%. Moreover, the inhibition at 1 µM against IRAK4 enzyme (test compound 1 uM) is 94.4%.

On to `CC(C)(O)CCn1cc2cc(NC(=O)c3cccc(S(N)(=O)=O)c3)c(N3CCOCC3)cc2n1` [Example 15], for which the inhibition at 0.1 µM stood at 28.5% against IRAK1 enzyme and 88.8% against IRAK4 enzyme (test compound 0.1 uM). Further, the inhibition at 1 µM is 66.5% against IRAK1 enzyme (test compound 1 uM) and 95.2% at IRAK4 enzyme (test compound 1 uM). Moreover, the values for the pIC50 in the test on hPBMC TNFα and at IRAK4 enzyme were 6.24 and 8.43, respectively.

Take `CC(C)(O)CCn1cc2cc(NC(=O)c3cccc(-c4ccn[nH]4)n3)c(N3CCOCC3)cc2n1` [Example 21, N-(2-(3-hydroxy-3-methylbutyl)-6-morpholino-2H-indazol-5-yl)-6-(1H-pyrazol-5-yl)picolinamide]: the pIC50 was 7.15 against IRAK1 enzyme, 7.92 in the test on hPBMC TNFα and 8.82 against IRAK4 enzyme. Further, the inhibition at 0.1 µM came to 67.2% at IRAK1 enzyme and 89.3% on IRAK4 enzyme (test compound 0.1 uM). Also, the inhibition at 1 µM at IRAK1 enzyme (test compound 1 uM) turned out to be 82.4%; at IRAK4 enzyme (test compound 1 uM), 97.9%.

Regarding `CC(C)(O)CCn1cc2cc(NC(=O)c3ccc(N)c([N+](=O)[O-])c3)c(N3CCOCC3)cc2n1` [Example 23, 4-amino-N-(2-(3-hydroxy-3-methylbutyl)-6-morpholino-2H-indazol-5-yl)-3-nitrobenzamide], the inhibition at 0.1 µM on IRAK1 enzyme is 26%; at IRAK4 enzyme (test compound 0.1 uM), 88%. The same compound registered an inhibition at 1 µM against IRAK1 enzyme (test compound 1 uM) of 45.3%. Also, the values for the pIC50 in the test with hPBMC TNFα and against IRAK4 enzyme were 6.22 and 7.98, respectively.

For `CC(C)(O)CCn1cc2cc(NC(=O)c3cccc(S(N)(=O)=O)c3)c(N3CCC(C(C)(C)O)CC3)cc2n1` [Example 29, N-(2-(3-hydroxy-3-methylbutyl)-6-(4-(2-hydroxypropan-2-yl)piperidin-1-yl)-2H-indazol-5-yl)-3-sulfamoylbenzamide], the results for the inhibition at 0.1 µM against IRAK1 enzyme and against IRAK4 enzyme (test compound 0.1 uM) were 54.2% and 93.3%, respectively. Moreover, the pIC50 is 7.69 in the test on hPBMC TNFα and 9.06 against IRAK4 enzyme.

With `CC(C)(O)CCn1cc2cc(NC(=O)c3cccc([N+](=O)[O-])c3)c(N3CCC(O)CC3)cc2n1` [Example 32, N-(2-(3-hydroxy-3-methylbutyl)-6-(4-hydroxypiperidin-1-yl)-2H-indazol-5-yl)-3-nitrobenzamide], the inhibition at 0.1 µM came to 17.5% against IRAK1 enzyme and 87.1% on IRAK4 enzyme (test compound 0.1 uM). In addition, the inhibition at 1 µM at IRAK1 enzyme (test compound 1 uM) came out at 52%. Besides, the pIC50 is 6.95 in the test with hPBMC TNFα and 8.70 on IRAK4 enzyme.

For the compound `COC(=O)CCNC(=O)c1cncc(-c2cc3nn(CCC(C)(C)O)cc3cc2NC(=O)c2cccc(S(N)(=O)=O)c2)c1` [Example 48, Methyl 3-(5-(2-(3-hydroxy-3-methylbutyl)-5-(3-sulfamoylbenzamido)-2H-indazol-6-yl)nicotinamido)propanoate], the inhibition at 0.1 µM was 39.7% against IRAK1 enzyme and 56.7% against IRAK4 enzyme (test compound 0.1 uM).

As for `CC(C)(O)CCn1cc2cc(NC(=O)c3cccc(C(N)=O)c3)c(-c3ccc(C(=O)NCc4ccoc4)cc3)cc2n1` [Example 49, N-(6-(4-((furan-3-ylmethyl)carbamoyl)phenyl)-2-(3-hydroxy-3-methylbutyl)-2H-indazol-5-yl)isophthalamide], the inhibition at 0.1 µM at IRAK1 enzyme worked out at 27.7%; on IRAK4 enzyme (test compound 0.1 uM) it was 55.4%. At IRAK1 enzyme (test compound 1 uM), this compound displayed an inhibition at 1 µM of 31.6%.

With `CC(C)(O)Cn1cc2cc(NC(=O)c3cccc([N+](=O)[O-])c3)c(-c3ccsc3)cc2n1` [Example 50, N-(2-(2-hydroxy-2-methylpropyl)-6-(thiophen-3-yl)-2H-indazol-5-yl)-3-nitrobenzamide], the inhibition at 1 µM against IRAK1 enzyme (test compound 1 uM) worked out at 9.6%; against IRAK4 enzyme (test compound 1 uM), 68.8%. The compound further displayed an inhibition at 0.1 µM on IRAK4 enzyme (test compound 0.1 uM) of 55.1%.

As to `CNC(=O)[C@@H](C)NC(=O)c1cncc(-c2cc3nn(CCC(C)(C)O)cc3cc2NC(=O)c2cccc(S(N)(=O)=O)c2)c1` [Example 51, (R)-5-(2-(3-hydroxy-3-methylbutyl)-5-(3-sulfamoylbenzamido)-2H-indazol-6-yl)-N-(1-(methylamino)-1-oxopropan-2-yl)nicotinamide], the inhibition at 0.1 µM against IRAK1 enzyme is 0%; on IRAK4 enzyme (test compound 0.1 uM), 48.8%.

On to `CS(=O)(=O)CCn1ncc2cc(NC(=O)c3cccc([N+](=O)[O-])c3)c(N3CCOCC3)cc21` [Example 52, N-(1-(2-(methylsulfonyl)ethyl)-6-morpholino-1H-indazol-5-yl)-3-nitrobenzamide], for which the results for the inhibition at 0.1 µM against IRAK1 enzyme and on IRAK4 enzyme (test compound 0.1 uM) were 0% and 21.2%, respectively.

With `CS(=O)(=O)CCn1cc2cc(NC(=O)c3cccc(S(N)(=O)=O)c3)c(N3CCOCC3)cc2n1` [Example 53, N-(2-(2-(methylsulfonyl)ethyl)-6-morpholino-2H-indazol-5-yl)-3-sulfamoylbenzamide], the inhibition at 0.1 µM on IRAK1 enzyme was determined as 13.9%; on IRAK4 enzyme (test compound 0.1 uM), 2.7%.

In the case of “N-(1-(3-hydroxy-3-methylbutyl)-6-morpholino-1H-indazol-5-yl)-3-nitrobenzamide [Example 28]”, the “IRAK1 %enzyme inhibition (1 uM)” value at IRAK1 enzyme (test compound 1 uM) is on record as 9.10%. Also, at IRAK4 enzyme (test compound 0.1 uM), the “IRAK4 %enzyme inhibition (0.1 uM)” value is on record as 56.1%. Moreover, the “IRAK4 %enzyme inhibition (1 uM)” value at IRAK4 enzyme (test compound 1 uM) amounted to 89.9%.

Values taken from patent publication EP4737451A1 (Dong Wha Pharm. Co., Ltd., priority 2023, dated 2025).
